Experimental findings from patent US9643952B2, “Pyridone compound” (KYOWA HAKKO KIRIN CO., LTD., priority 2012, dated 2017) are described below.

This assay concerns dinitrofluorobenzene-induced auricle edema reaction. As to the kind of experiment: Suppressive action on dinitrofluorobenzene-induced auricle edema reaction in mouse. Type of assay: in vivo. To be noted: for auricle edema suppression rate (%): BALE/c mice (female), test compound 1% (w/v %) in acetone applied to front and back of auricle (total 20 μL) 1 hr before and 3 hr after induction, auricle thickness 24 hr after induction; for suppressive action on auricle edema response (in words): BALE/c mice, 1% (w/v %) in acetone applied to auricle. How it is done: BALE/c mice (female, supplied by CHARLES RIVER LABORATORIES JAPAN, INC.) were purchased at the age of 5 weeks. After quarantine and acclimation, mice showing smooth body weight increase and free of abnormality in appearance were used and the test was started at the age of 7 weeks. The mice were housed in a breeding room at room temperature 19-25° C., humidity 30-70%, 12 hr lighting per day (7 a.m.-7 p.m.) with 3 mice in each plastic gauge, and bred on with free ingestion of a commercially available solid feed and water. Two days before the test, the abdomen of the BALE/c mice was shaved, and the mice were immunized by applying 100 μL of a solution {concentration 0.5% [weight (w)/volume (v) %]} of dinitrofluorobenzene (manufactured by Nacalai Tesque) in acetone (manufactured by Wako Pure Chemical Industries, Ltd.) to the shaved part. The reaction was induced by applying dinitrofluorobenzene-acetone solution [concentration 0.2% (w/v %)] to the front and the back of auricle (10 μL to each, total 20 μL) on day 5 after the immunization. A test compound dissolved in acetone at concentration of 1% (w/v %) was administered by applying same to the front and the back of auricle (10 μL to each, total 20 μL) 1 hr before and 3 hr after induction of the reaction. After application, the applied part was air-dried with a dryer. The group applying administered with the test compound was taken as a test compound administration group, and the group applying administered with acetone as a solvent instead of the test compound was taken as a solvent administration group. Also, the group free of immunization and reaction induction but applying administered with acetone instead of the test compound was taken as a normal group. The thickness of auricle was measured using a dial thickness gauge (G-1A manufactured by OZAKI MFG. CO., LTD.) immediately before and 24 hr after induction of the reaction, and the difference thereof was taken as auricle edema. The suppression rate (%) of auricle edema was calculated according to the following formula. [formula]

Regarding `Cc1cc(C#N)ccc1Nc1c(C(=O)N2CCC(c3ccc(F)cc3)CC2)cn(C)c(=O)c1Cl` [Compound 100, 4-{3-chloro-5-[4-(4-fluorophenyl)piperidine-1-carbonyl]-1-methyl-2-oxo-1,2-dihydropyridin-4-ylamino}-3-methylbenzonitrile], the “auricle edema suppression rate (%)” value stood at 53% and the “suppressive action on auricle edema response (in words)” value (from here on “suppressive action”) is given as “showed a suppressive action on auricle edema response”.

`Cc1c(Nc2ccc(F)cc2F)c(C(=O)N2CCC(c3ccc(F)cc3)CC2)cn(C)c1=O` [Compound 125, 4-(2,4-difluorophenylamino)-5-[4-(4-fluorophenyl)piperidine-1-carbonyl]-1,3-dimethylpyridin-2(1H)-one]: the “auricle edema suppression rate (%)” value was determined as 47% and the “suppressive action” value was “showed a suppressive action on auricle edema response”.

As for `COCCn1cc(C(=O)N2CCC(c3ccc(F)cc3)CC2)c(Nc2ccc(F)cc2F)c(Cl)c1=O` [Compound 144, 3-chloro-4-(2,4-difluorophenylamino)-5-[4-(4-fluorophenyl)piperidine-1-carbonyl]-1-(2-methoxyethyl)pyridin-2(1H)-one], the “auricle edema suppression rate (%)” value came to 32%.

As to `Cn1cc(C(=O)N2CCC(c3ccc(F)cc3)CC2)c(Nc2ccc(S(C)(=O)=O)cc2F)c(Cl)c1=O` [Compound 145, 3-chloro-4-[2-fluoro-4-(methylsulfonyl)phenylamino]-5-[4-(4-fluorophenyl)piperidine-1-carbonyl]-1-methylpyridin-2(1H)-one], the “suppressive action” value is recorded as “showed a suppressive action on auricle edema response”.

Regarding `Cc1ccc(Cl)cc1Nc1c(C(=O)N2CCC(c3ccc(F)cc3)CC2)cn(OCCO)c(=O)c1Cl` [Compound 204, 3-chloro-4-(5-chloro-2-methylphenylamino)-5-[4-(4-fluorophenyl)piperidine-1-carbonyl]-1-(2-hydroxyethoxyl)pyridin-2(1H)-one], the “auricle edema suppression rate (%)” value turned out to be 41% and the “suppressive action” value is “showed a suppressive action on auricle edema response”.

With `COCCn1cc(C(=O)N2CCC(c3ccc(F)cc3)CC2)c(Nc2ccc3scnc3c2)c(Cl)c1=O` [Compound 206, 4-(benzo[d]thiazol-5-ylamino)-3-chloro-5-[4-(4-fluorophenyl)piperidine-1-carbonyl]-1-(2-methoxyethyl)pyridin-2(1H)-one], the “auricle edema suppression rate (%)” value is recorded as 30% and the “suppressive action” value is listed as “showed a suppressive action on auricle edema response”.
